Earlier results on one molecule are cited in patent publication US5728685A, “Methods of treating inflammation using cell adhesion inhibitors” (Glycomed Incorporated, priority 1995, dated 1998).

The test system of this data set is mammalian hepatocytes. As to conditions: Lee et al. 1984, read-out: IC50 for inhibition of labeled ASOR binding; cited from earlier work.

On to `OC[C@H]1O[C@@H](O[C@H]2[C@H](O)[C@@H](O)C(O)O[C@@H]2CO)[C@H](O)[C@@H](O)[C@H]1O` (stereo partly shown) [single valent lactose, lactose], for which the IC50 was 500 µM.
